Consider 2 compounds from US5866609A, “Substituted vinylurea derivatives and medicine containing the same” (SS Pharmaceutical Co., Ltd., priority 1996, dated 1999).

The target in experiment [1] is T1, ACAT of rat liver microsome (Rattus norvegicus, UniProt Q7TQM4).
T1 construct: from tissue; host or cells: rat liver microsomes
T1 sequence (Q7TQM4 1-524): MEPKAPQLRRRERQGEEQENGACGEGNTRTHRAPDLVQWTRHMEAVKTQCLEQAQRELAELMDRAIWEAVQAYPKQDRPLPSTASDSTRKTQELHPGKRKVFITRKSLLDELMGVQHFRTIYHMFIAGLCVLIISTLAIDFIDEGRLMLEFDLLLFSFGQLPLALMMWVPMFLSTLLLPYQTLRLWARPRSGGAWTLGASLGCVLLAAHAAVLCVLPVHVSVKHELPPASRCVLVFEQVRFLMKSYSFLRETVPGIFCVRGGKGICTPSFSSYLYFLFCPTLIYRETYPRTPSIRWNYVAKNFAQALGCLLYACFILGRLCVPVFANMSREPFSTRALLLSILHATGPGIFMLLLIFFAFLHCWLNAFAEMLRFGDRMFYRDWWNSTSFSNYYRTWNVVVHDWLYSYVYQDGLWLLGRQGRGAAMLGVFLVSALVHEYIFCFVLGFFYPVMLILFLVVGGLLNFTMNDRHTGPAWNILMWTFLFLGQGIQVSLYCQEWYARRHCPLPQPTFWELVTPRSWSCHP
In words: inhibitory activity against ACAT using rat liver microsome. It is filed as biochemical. Conditions: 5 min; 100 nM of each compound; Mean + S.D.; n = 3; 37° C. for 5 minutes; vs DMSO control; read-out: Inhibition rate against ACAT activity in rat liver microsome (%). How it is done:
- ii) Test for inhibitory activity against ACAT using rat liver microsome
The ACAT activity of rat liver microsome was measured as the radioactivity of cholesteryl oleate produced from [^14 C]oleoyl-CoA and endogenous cholesterol.
More specifically, [^14 C]oleoyl-CoA and delipidized BSA were added to a rat liver microsome fraction prepared in accordance with a method known per se in the art to conduct a reaction at 37° C. for 5 minutes. After the reaction, the lipid in the reaction mixture was extracted with hexane, and the extract was dried to solid under reduced pressure. After the resultant residue was then developed (developing solvent: diethyl ether/hexane/acetic acid 80/20/1) by TLC, the amount of cholesteryl oleate formed was determined by an imaging plate.

Another experiment has as its target T2, ACAT in J774 cells (Mus musculus, UniProt Q61263).
T2 construct: endogenous in cells; host or cells: J774 cells (mouse macrophage-like)
T2 sequence (Q61263 1-540): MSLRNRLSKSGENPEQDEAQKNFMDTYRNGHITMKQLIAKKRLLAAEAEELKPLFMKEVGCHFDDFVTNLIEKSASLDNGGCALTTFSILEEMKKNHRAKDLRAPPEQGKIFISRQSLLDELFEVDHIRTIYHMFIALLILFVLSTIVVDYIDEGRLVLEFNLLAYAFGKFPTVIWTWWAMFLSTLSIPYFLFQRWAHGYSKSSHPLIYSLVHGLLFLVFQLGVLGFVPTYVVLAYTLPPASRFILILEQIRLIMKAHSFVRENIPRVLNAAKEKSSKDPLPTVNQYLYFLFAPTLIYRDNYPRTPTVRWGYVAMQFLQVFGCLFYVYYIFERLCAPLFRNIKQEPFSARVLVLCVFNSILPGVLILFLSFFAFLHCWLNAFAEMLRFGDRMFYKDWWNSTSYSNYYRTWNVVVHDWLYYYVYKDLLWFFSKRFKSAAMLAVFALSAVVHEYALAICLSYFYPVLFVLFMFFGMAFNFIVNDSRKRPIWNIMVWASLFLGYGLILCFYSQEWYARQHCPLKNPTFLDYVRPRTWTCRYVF
Put plainly: inhibitory activity against ACAT using J774 cells. It is filed as cell-based. Conditions: 100 nM of each compound, mean ± S.D., n = 3, 4 hours at 37° C., vs DMSO control, read-out: Inhibition rate against ACAT activity in J774 cells (%). How it is done:
i) Test for inhibitory activity against ACAT using J774 cells:
The ACAT activity of J774 cells was measured as the radioactivity of cholesteryl oleate produced from [^14 C]oleic acid and cholesterol which were added to a culture solution.
Added to the cells were [^14 C]oleic acid, delipidized BAS (bovine serum albumin), […] (0.3M glucose solution containing cholesterol and phosphatidylcholine at a weight ratio of 2:1) and 25-hydroxycholesterol to culture the cells for 4 hours at 37° C. under 5% CO2. After the culturing, the cultured cells were disrupted with a 1% SDS (sodium lauryl sulfate) solution, and the lipid in the disrupted solution was extracted with hexane. The extract was dried to solid under reduced pressure. After the resultant residue was then developed (developing solvent: diethyl ether/hexane/acetic acid=80/20/1) by TLC (thin-layer chromatography), the amount of cholesteryl oleate formed was determined by an imaging plate.

On to `Cc1cc2ncc(NC(=O)Nc3ccc(F)cc3F)c(-c3ccccc3Cl)c2cc1C` [TMP-153], for which the inhibition at 0.1 µM in experiment [1] turned out to be 82.3 ± 2.79%; on ACAT in J774 cells it was 36.9 ± 11.9%.
Taken in the same sequence, the figures for `COc1ccc(C(=CNC(=O)Nc2c(C(C)C)cccc2C(C)C)c2ccc(OC)cc2)cc1` [Compound 3] were 7.87 ± 9.26% and 77.8 ± 4%.
